Each structure is given as a SMILES string. Where only a bound is given, the exact number is not on record here.

The subject of assay [1] is Septoria tritici (ATCC 26517). In words: Minimum Inhibitory Concentration (MIC) (Septoria tritici), CLSI-based microdilution. The settings on record: Zymoseptoria tritici, ATCC26517, 168 h, MIC class; 50% reduction in growth of S. tritici; 7 days at 22 °C; read-out: Septoria Rating. Type of assay: cell-based. As to the method:
C. Minimum Inhibitory Concentration (MIC) (Septoria tritici) Compounds of the present disclosure were assessed for their ability to inhibit the growth of a common strain of the fungal plant pathogen Septoria tritici (ATCC 26517) using a procedure based on a Clinical and Laboratory Standards Institute (CLSI) microdilution assay protocol for filamentous fungi. Stock solutions of the test compounds and standards were prepared in DMSO at 6400 μg/mL. Each stock solution was used to prepare a 2-fold dilution series ranging from 16 to 0.016 μg/mL (total of 11 compound concentrations) in RPMI-1640 (Roswell Park Memorial Institute) medium containing 3-(N-morpholino)propanesulfonic acid (MOPS) buffer and 2% DMSO. A 100 μL aliquot of the dilutions was added to columns 1 (16 μg/mL compound) through 11 (0.016 μg/mL compound) of a 96-well microtiter plate. This format was replicated in a second row of the microtiter plate. Thus, each microtiter plate could include 11 concentrations of four test or control compounds replicated twice. A 100 μL aliquot of RPMI-1640/MOPS/2% DMSO medium was added to column 12 (no compound control) of the microtiter plate. A fresh culture of S. tritici was used to prepare a solution of approximately 5×10^4 colony-forming units per milliliter (cfu/mL) in RPMI/MOPS medium without DMSO. A 100 μL aliquot of this solution was added to all 96 wells in the microtiter plate. […]
(In general: Broth dilution looks for growth in wells or tubes with falling amounts of substance.)

Assay [2] concerns Puccinia recondita tritici = Puccinia triticina (PUCCRT). In words: Fungicidal activity vs. wheat leaf rust. The settings on record: % disease control @ 50 ppm, wheat seedlings sprayed, inoculated the following day, severity evaluated 7-9 days later, read-out: Puccinia Rating. Type of assay: in vivo, Puccinia recondita tritici on wheat (variety Yuma). From the text:
D. Evaluation of Fungicidal Activity Vs. Leaf Rust (Causal Agent Puccinia recondita tritici=Puccinia triticina; Bayer code PUCCRT). […] Each pot contained 3-8 seedlings. These plants were sprayed until wet with the formulated test compounds. The compounds were formulated at 50 ppm in 10 vol. % acetone plus 90 vol. % Triton X water (deionized water 99.99 wt %+0.01 wt % Triton X100), giving a “formulated test compound.” Formulated test compounds were applied to plants using a turn table sprayer fitted with two opposing air atomization nozzles which delivered approximately 1500 L/ha of spray volume. On the following day, the leaves were inoculated with an aqueous spore suspension of Puccinia recondita tritici and the plants were kept in high humidity overnight to permit spores to germinate and infect the leaf. The plants were then transferred to a greenhouse until disease developed on untreated control plants. Disease severity was evaluated 7-9 days later, depending on the speed of disease development. In each case of Table 3, the Puccinia rating scale is as follows: […]

As for `OC(Cn1cnnn1)(c1ccc(F)cc1F)C(F)(F)c1ccc(-c2ccc(Cl)nc2)cn1` (stereo not shown) [Compound 30, 1-(6′-Chloro-[3,3′-bipyridin]-6-yl)-2-(2,4-difluorophenyl)-1,1-difluoro-3-(1H-tetrazol-1-yl)propan-2-ol], the MIC in assay [1] was not above 0.5 µg/mL. Besides, the pest or weed control at 50 ppm in assay [2] was in the range of 80 to 100%.
On to `N#Cc1ccc(-c2ccc(C(F)(F)C(O)(Cn3cnnn3)c3ccc(F)cc3F)nc2)nc1` (stereo not shown) [Compound 95, 6′-(2-(2,4-difluorophenyl)-1,1-difluoro-2-hydroxy-3-(1H-tetrazol-1-yl)propyl)-[2,3′-bipyridin]-5-carbonitrile], for which the pest or weed control at 50 ppm in assay [2] lay within 80 to 100%.
Same read-out and setting: the value for `OC(Cn1cnnn1)(c1ccc(F)cc1F)C(F)(F)c1ccc(-c2ccncc2)cn1` (stereo not shown) [Compound 96, 1-([3,4′-bipyridin]-6-yl)-2-(2,4-difluorophenyl)-1,1-difluoro-3-(1H-tetrazol-1-yl)propan-2-ol] was 60 to 79%.
Regarding `N#Cc1ccc(OCc2ccc(C(F)(F)C(O)(Cn3cnnn3)c3ccc(F)cc3F)nc2)nc1` (stereo not shown) [Compound 98, 6-((6-(2-(2,4-difluorophenyl)-1,1-difluoro-2-hydroxy-3-(1H-tetrazol-1-yl)propyl)pyridin-3-yl)methoxy)nicotinonitrile], in assay [2], the pest or weed control at 50 ppm is 80 to 100%.
Take `OC(Cn1cnnn1)(c1ccc(F)cc1F)C(F)(F)c1ccc(COc2ccc(C(F)(F)F)cn2)cn1` (stereo not shown) [Compound 99, 2-(2,4-difluorophenyl)-1,1-difluoro-3-(1H-tetrazol-1-yl)-1-(5-(((5-(trifluoromethyl)pyridin-2-yl)oxy)methyl)pyridin-2-yl)propan-2-ol]: the pest or weed control at 50 ppm in assay [2] fell in the range of 80 to 100%.
As for `OC(Cn1cnnn1)(c1ccc(F)cc1F)C(F)(F)c1ccc(COc2ncc(C(F)(F)F)cc2Cl)cn1` (stereo not shown) [Compound 100, 1-(5-(((3-chloro-5-(trifluoromethyl)pyridin-2-yl)oxy)methyl)pyridin-2-yl)-2-(2,4-difluorophenyl)-1,1-difluoro-3-(1H-tetrazol-1-yl)propan-2-ol], the pest or weed control at 50 ppm in assay [2] is 80 to 100%.
`OC(Cn1cnnn1)(c1ccc(F)cc1F)C(F)(F)c1ccc(C(F)(F)c2ccc(F)cc2)cn1` (stereo not shown) [Compound 101, 1-(5-(difluoro(4-fluorophenyl)methyl)pyridin-2-yl)-2-(2,4-difluorophenyl)-1,1-difluoro-3-(1H-tetrazol-1-yl)propan-2-ol]: the pest or weed control at 50 ppm in assay [2] lay within 80 to 100%.
Take `OC(Cn1cnnn1)(c1ccc(F)cc1F)C(F)(F)c1ccc(C(F)(F)c2ccc(C(F)(F)F)cc2)cn1` (stereo not shown) [Compound 102, 1-(5-(difluoro(4-(trifluoromethyl)phenyl)methyl)pyridin-2-yl)-2-(2,4-difluorophenyl)-1,1-difluoro-3-(1H-tetrazol-1-yl)propan-2-ol]: the pest or weed control at 50 ppm in assay [2] lay in the range of 80 to 100%.
For `N#Cc1ccc(C(F)(F)c2ccc(C(F)(F)C(O)(Cn3cnnn3)c3ccc(F)cc3F)nc2)cc1` (stereo not shown) [Compound 103, 4-((6-(2-(2,4-difluorophenyl)-1,1-difluoro-2-hydroxy-3-(1H-tetrazol-1-yl)propyl)pyridin-3-yl)difluoromethyl)benzonitrile], the pest or weed control at 50 ppm in assay [2] was 80 to 100%.
